Literature values in PMC10135567, “New Indole-3-Propionic Acid and 5-Methoxy-Indole Carboxylic Acid Derived Hydrazone Hybrids as Multifunctional Neuroprotectors” (Antioxidants, 2023).

System: SH-SY5Y cells and isolated rat-brain synaptosomes
Set-up: method as in PMID 35624746
Conditions: SH-SY5Y cells and rat-brain synaptosomes under toxic agents of oxidative stress; cited from earlier work

## O=C(CCn1c(=S)n(CCC(=O)N/N=C/c2cccc(O)c2O)c2ccccc21)N/N=C/c1cccc(O)c1O [VIII]
  cellular and synaptosomal viability restored: up to 80%
